# In patent US8232299B2, “Phthalimide derivatives that influence cellular vesicular systems, pharmaceutical compositions, and use thereof” (Avidin Kft., priority 2007, dated 2012):
# What was measured:
# TNFα = assay: early (preformed) TNFα secretion of RAW.264.7 macrophages, ELISA; assay type: cell-based, mice
# Description: Matured macrophages produce tumor necrosis factor (TNF-alpha or TNFα) in response to bacterial lipopolysaccharide (E. coli LPS, Sigma) stimulation. TNFα production is induced by […] to the toll-like receptor 4 (TLR-4), the lipopolysaccharide binding protein (LBP), and the CD14 receptor. Secretion of the TNFα is biphasic. For one hour after the stimulation macrophages respond with release of preformed TNFα. Meanwhile, the NF-kappaB signaling pathway turns on the TNFα gene transcription reaching maximum after approximately 8 hours.
# In our experiments we investigated the early TNFα secretion of RAW.264.7 matured mice macrophages. This cell line stores large amount of preformed TNFα. […] Culture supernatant was collected and TNFα content was determined by R&D Duoset ELISA kit (detection limit<62.5 pg/ml). […] So the reduced TNFα level was due to inhibition of the release of preformed TNFα and not due to dying of the cells.
# In this example two controls (diluent only—ethanol incubated) and four treated samples were analyzed.
# [1] = system: RVH human melanoma cell line; assay: cytotoxic effect on melanoma cell line, MTS assay, 48 hours; assay type: cell-based; conditions: 48 hours treatment; FIG. 4
# Method: RVH human melanoma cell line was cultured in Minimum Essential Medium Eagle (Sigma, St. Louis, Mo., USA), Na-piruvate, Glutamine, Non-essential amino acids, penicillin (50 IU/ml)-streptomycin ([…]), 10% fetal bovine serum at 37° C., in 5% CO2. Cells were trypsinized with trypsin/EDTA (Sigma-Aldrich, St. Louis, Mo.) on every second day and were passed into 60 or 100 mm plates. When the culture reached the required cell number (approx. 10^6) for the planned experiment 50.00 cell/well was plated into 24 well plates (Costar® 24 Well TC-Treated Microplates) and left overnight to adhere to the bottom of the well. Addition of the substance was performed the following way: next day the culture media was drawn from the adhered cells and media comprising compounds of the present invention in appropriate concentration and well mixed therein was pipetted (2 ml/well) onto the cells. The substance to be examined was diluted in 100% DMSO, this way an amount of DMSO corresponding to the highest concentration of the substance in a given assay were measured in the media of the control wells. After 48 hours of treatment live cells were detected by CellTiter® 96 Aqueous Non-radioactive Cell Proliferation Assay (Promega, Madison, Wis., USA) to determine the number of live cells in the treated and in the control samples.
# MTS is converted to formazane in the living cells, which product is dissolved in the media, and its quantity/absorbance can be measured at 490 nm. […] Then, for the determination of the ratio of live cells 20 μl MTS and 1 μl PMS are added to 100 μl media. The enzyme reaction occurs at incubation at 37° C., 5% CO2 for 1 to 4 hours. Formazane produced by the cells is read on ELISA plate reader, from which the number of living cells can be obtained indirectly. Since the inventors performed the experiments in 24 well plates with 50.000 cell/well, the protocol had to be modified. After treatment of the cells for an appropriate time (type of compound, different concentrations), the incubation media (2 ml) containing the examined substance was removed, then 400 μl media containing reagents in the same concentration as given above (333.3 μl media, 66.6 μl MTS, and 3.3 μl PMS per well) was pipetted to the cells. To be able to use ELISA plate reader (Multiskan R C, Thermo Labsystems, Franklin, Mass., USA) 400 μl sample from each single well of the 24 well plate was pipetted into four wells of a 96 well plate (Micromethod plates 96 wells flat form) in 100 μl aliquots. That also helped to eliminate possible errors due to inconsistent pipetting. On each 24 well plate 4 wells were control samples. From these 3 times 100 μl was pipetted onto the 96 well plates, so, altogether 12 controls were provided on each 96 well plate. The remaining 4 wells were for background measurements with 100 μl media containing MTS and PMS as described above.
# [2] = system: pseudorabies Bartha type viruses; assay type: cell-based, pseudorabies virus; conditions: 100 μM
smiles,measurement,setting,value
"CCNc1c(F)c(F)c2c(c1F)C(=O)N(c1c(C(C)C)cccc1C(C)C)C2=O [Compound 3b, 2-(2,6-diisopropylphenyl)-5-(ethylamino)-4,6,7-trifluoroisoindole-1,3-dione]",LPS stimulated TNFα release of the macrophages,"TNFα; 100 ng/ml LPS, FIG. 2b",reduces the induced TNFα release
same,basal TNFα release of the macrophages,"TNFα; without LPS induction, FIG. 2a",able to reduce the basal TNFα release
same,inhibition of RVH melanoma cells (cytotoxic effect),[1],strongest inhibition
same,entry of the viruses into the cell,[2],does not inhibit the entry of the viruses into the cell
same,release and spreading of the viruses in vitro,[2],does inhibit their release and thus their spreading in vitro
same,plaque size (viral positive cells),[2]; 24 hours,2-6 cells/plaque
